According to US20260297542A1, “HERBICIDE RESISTANT PLANTS” (SYNGENTA CROP PROTECTION AG, priority 2023, published 2026):
Numbering of substitutions follows the chain as printed.

Assays:
[1] = target: T1, AtPPO1 S305L Y362F G404A (SEQ ID NO.129) (Arabidopsis thaliana, UniProt P55826, G404A/S305L/Y362F); test: fluorescent Protoporphyrinogen Oxidase assay, crude extract; assay type: biochemical; conditions: read-out: percentage inhibition
T1 construct: made in house; host or cells: E. coli BL21 (DE3) hemG, crude extract
T1 sequence (P55826 35-537 S305L/Y362F/G404A): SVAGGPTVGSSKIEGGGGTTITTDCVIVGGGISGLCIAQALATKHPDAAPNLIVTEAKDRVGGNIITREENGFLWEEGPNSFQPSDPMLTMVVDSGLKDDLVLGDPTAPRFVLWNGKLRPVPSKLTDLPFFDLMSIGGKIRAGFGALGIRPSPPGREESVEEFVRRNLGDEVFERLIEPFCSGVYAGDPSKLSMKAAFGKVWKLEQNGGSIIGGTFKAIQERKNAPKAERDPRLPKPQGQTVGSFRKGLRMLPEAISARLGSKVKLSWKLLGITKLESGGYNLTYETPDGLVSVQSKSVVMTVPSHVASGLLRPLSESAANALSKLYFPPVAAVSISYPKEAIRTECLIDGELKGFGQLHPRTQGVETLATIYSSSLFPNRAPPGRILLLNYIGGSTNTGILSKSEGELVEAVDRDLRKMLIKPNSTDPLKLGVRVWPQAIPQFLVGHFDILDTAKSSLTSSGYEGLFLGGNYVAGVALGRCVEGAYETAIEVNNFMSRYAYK

[2] = target: T2, AtPPO1 S305L G404A L479N (SEQ ID NO.137) (Arabidopsis thaliana, UniProt P55826, G404A/L479N/S305L); test: as above; assay type: biochemical; conditions: read-out: percentage inhibition
T2 construct: made in house; host or cells: E. coli BL21 (DE3) hemG, crude extract
T2 sequence (P55826 35-537 S305L/G404A/L479N): T1 sequence (P55826 35-537 S305L/Y362F/G404A) with F328Y, L445N

What does the source list for `CCOC(=O)COc1ncccc1Oc1cc(-n2c(=O)cc(C(F)(F)F)n(C)c2=O)c(F)cc1Cl` [Herbicide A, epyrifenacil]?
inhibition at 0.1 ppm [1]: 25%; inhibition at 1 ppm [1]: 78%; inhibition at 10 ppm [1]: 92%; inhibition at 100 ppm [1]: 100%; inhibition at 0.1 ppm [2]: 24%; inhibition at 1 ppm [2]: 93%; inhibition at 10 ppm [2]: 100%; inhibition at 100 ppm [2]: 100%

How did the inhibition at 0.1 ppm [1] turn out when `C#CCN1C(=O)C(F)(F)Oc2cc(F)c(-n3c(=O)n(C)c(=S)n(C)c3=O)cc21` [Herbicide B, trifludimoxazin] was run?
Its inhibition at 0.1 ppm is 70%.

And the inhibition at 1 ppm [1]?
Its inhibition at 1 ppm is 93%.

What about the inhibition at 10 ppm [1] of the same compound?
The inhibition at 10 ppm was 97%.

And the inhibition at 100 ppm [1]?
The inhibition at 100 ppm was 100%.

What about the inhibition at 0.1 ppm [2] of the same compound?
Its inhibition at 0.1 ppm is 77%.

And the inhibition at 1 ppm [2]?
Its inhibition at 1 ppm is 98%.

What about the inhibition at 10 ppm [2] of the same compound?
Its inhibition at 10 ppm is 100%.

What about the inhibition at 100 ppm [2] of the same compound?
Its inhibition at 100 ppm is 100%.

Which results are given for `CCOC(=O)C1(C)CC(c2cc(-n3c(=O)cc(C(F)(F)F)n(C)c3=O)c(F)cc2Cl)=NO1` (stereo not shown) [Herbicide C, 3-(2-chloro-4-fluoro-5-(3-methyl-2,6-dioxo-4-trifluoromethyl-3,6-dihydropyrimidin-1(2H)-yl)phenyl)-5-methyl-4,5-dihydroisoxazole-5-carboxylic acid ethyl ester]?
inhibition at 0.1 ppm [1]: 24%; inhibition at 1 ppm [1]: 76%; inhibition at 10 ppm [1]: 93%; inhibition at 100 ppm [1]: 100%; inhibition at 0.1 ppm [2]: 26%; inhibition at 1 ppm [2]: 90%; inhibition at 10 ppm [2]: 100%; inhibition at 100 ppm [2]: 100%

With `CCOC(=O)[C@]1(C)CC(c2cc(-n3c(=O)n(C)c(=S)n(C)c3=O)c(F)cc2Cl)=NO1` [Herbicide D, ethyl (5S)-3-[2-chloro-5-(3,5-dimethyl-2,6-dioxo-4-thioxo-1,3,5-triazinan-1-yl)-4-fluoro-phenyl]-5-methyl-4H-isoxazole-5-carboxylate] as the compound, how does the inhibition at 0.1 ppm [1] read?
The inhibition at 0.1 ppm was 9%.

What about the inhibition at 1 ppm [1] of the same compound?
The inhibition at 1 ppm was 45%.

And the inhibition at 10 ppm [1]?
The inhibition at 10 ppm was 83%.

And the inhibition at 100 ppm [1]?
The inhibition at 100 ppm was 96%.

And the inhibition at 0.1 ppm [2]?
Its inhibition at 0.1 ppm is 12%.

And the inhibition at 1 ppm [2]?
The inhibition at 1 ppm was 58%.

And the inhibition at 10 ppm [2]?
Its inhibition at 10 ppm is 98%.

What about the inhibition at 100 ppm [2] of the same compound?
Its inhibition at 100 ppm is 100%.

For `CC(C)N(C)S(=O)(=O)NC(=O)c1cc(-n2c(=O)cc(C(F)(F)F)n(C)c2=O)c(F)cc1Cl` [Herbicide E, saflufenacil], which inhibition at 0.1 ppm [1] is on record?
Its inhibition at 0.1 ppm is 15%.

What about the inhibition at 1 ppm [1] of the same compound?
Its inhibition at 1 ppm is 53%.

And the inhibition at 10 ppm [1]?
Its inhibition at 10 ppm is 84%.

What about the inhibition at 100 ppm [1] of the same compound?
Its inhibition at 100 ppm is 100%.

What about the inhibition at 0.1 ppm [2] of the same compound?
Its inhibition at 0.1 ppm is 22%.

What about the inhibition at 1 ppm [2] of the same compound?
Its inhibition at 1 ppm is 66%.

And the inhibition at 10 ppm [2]?
Its inhibition at 10 ppm is 100%.

What about the inhibition at 100 ppm [2] of the same compound?
The inhibition at 100 ppm was 96%.
